Data reported in ChEMBL document CHEMBL5120842, “Application of partially aromatic ortho-quionone-methides for the synthesis of novel naphthoxazines with improved antibacterial activity” (2022).
Converted amounts (≈) assume the structure as drawn.

Test system: Escherichia coli
Experiment: Antibacterial activity against Gram-negative Escherichia coli K-12 AG100 expressing AcrAB-TolC efflux pump assessed as inhibition of bacterial growth by CLSI protocol based assay
Type: functional

| Structure (SMILES) | MIC |
| --- | --- |
| CCOC(=O)[C@H]1c2c(ccc3ccccc23)O[C@@H]2c3[nH]c4ccccc4c3CCN21 (relative stereo) | > 100 µM |
| CCOC(=O)[C@H]1c2ccc3ccccc3c2O[C@@H]2c3[nH]c4ccccc4c3CCN21 (relative stereo) | > 100 µM |
| CCOC(=O)[C@H]1c2ccc3ccccc3c2O[C@@H]2c3ccsc3CCN21 (relative stereo) | > 100 µM |
| CCOC(=O)[C@H]1c2ccc3ccccc3c2O[C@@H]2c3ccccc3CCN21 (relative stereo) | > 100 µM |

Test system: Escherichia coli
Experiment: Inhibition of efflux pump in Gram-negative Escherichia coli K-12 AG100 expressing AcrAB-TolC efflux pump assessed as relative fluorescence index using ethidium bromide as substrate at 50 uM and measured after 1 hr by fluorescence based microtiter plate reader analysis
Type: functional

| Structure (SMILES) | Activity |
| --- | --- |
| CCOC(=O)[C@H]1c2c(ccc3ccccc23)O[C@@H]2c3[nH]c4ccccc4c3CCN21 (relative stereo) | 0.01 |
| CCOC(=O)[C@H]1c2ccc3ccccc3c2O[C@@H]2c3[nH]c4ccccc4c3CCN21 (relative stereo) | -0.02 |
| CCOC(=O)[C@H]1c2ccc3ccccc3c2O[C@@H]2c3ccsc3CCN21 (relative stereo) | 0.01 |
| CCOC(=O)[C@H]1c2ccc3ccccc3c2O[C@@H]2c3ccccc3CCN21 (relative stereo) | 0.09 |
| N#CC(C#N)=NNc1cccc(Cl)c1 [CARBONYL CYANIDE M-CHLOROPHENYLHYDRAZONE] | 1.12 |

Test system: Staphylococcus aureus
Experiment: Antibacterial activity against Gram-positive methicillin and oxacillin-resistant Staphylococcus aureus ATCC 43300 assessed as inhibition of bacterial growth by CLSI protocol based assay
Type: functional

| Structure (SMILES) | MIC |
| --- | --- |
| CCOC(=O)[C@H]1c2c(ccc3ccccc23)O[C@@H]2c3[nH]c4ccccc4c3CCN21 (relative stereo) | > 100 µM |
| CCOC(=O)[C@H]1c2ccc3ccccc3c2O[C@@H]2c3[nH]c4ccccc4c3CCN21 (relative stereo) | > 100 µM |
| CCOC(=O)[C@H]1c2ccc3ccccc3c2O[C@@H]2c3ccsc3CCN21 (relative stereo) | > 100 µM |
| CCOC(=O)[C@H]1c2ccc3ccccc3c2O[C@@H]2c3ccccc3CCN21 (relative stereo) | > 100 µM |

Test system: Escherichia coli
Experiment: (§1) Antibacterial activity against Gram-negative Escherichia coli K-12 AG100 expressing AcrAB-TolC efflux pump assessed as inhibition of efflux pump by measuring intracellular accumulation of ethidium bromide at 50 uM and measured every minute for 1 hr by fluorescence based microtiter plate reader analysis
Type: functional

| Structure (SMILES) | Activity |
| --- | --- |
| CCOC(=O)[C@H]1c2c(ccc3ccccc23)O[C@@H]2c3[nH]c4ccccc4c3CCN21 (relative stereo) | 34706 |
| CCOC(=O)[C@H]1c2ccc3ccccc3c2O[C@@H]2c3[nH]c4ccccc4c3CCN21 (relative stereo) | 33567.67 |
| CCOC(=O)[C@H]1c2ccc3ccccc3c2O[C@@H]2c3ccsc3CCN21 (relative stereo) | 34561.67 |
| CCOC(=O)[C@H]1c2ccc3ccccc3c2O[C@@H]2c3ccccc3CCN21 (relative stereo) | 37156.33 |
| N#CC(C#N)=NNc1cccc(Cl)c1 [CARBONYL CYANIDE M-CHLOROPHENYLHYDRAZONE] | 72448.33 |

Test system: Staphylococcus aureus
Experiment: Inhibition of efflux pump in Gram-positive methicillin and oxacillin-resistant Staphylococcus aureus ATCC 43300 assessed as relative fluorescence index using ethidium bromide as substrate at 50 uM and measured after 1 hr by fluorescence based microtiter plate reader analysis
Type: functional

| Structure (SMILES) | Activity |
| --- | --- |
| CCOC(=O)[C@H]1c2c(ccc3ccccc23)O[C@@H]2c3[nH]c4ccccc4c3CCN21 (relative stereo) | -0.03 |
| CCOC(=O)[C@H]1c2ccc3ccccc3c2O[C@@H]2c3[nH]c4ccccc4c3CCN21 (relative stereo) | 0.09 |
| CCOC(=O)[C@H]1c2ccc3ccccc3c2O[C@@H]2c3ccsc3CCN21 (relative stereo) | 0.3 |
| CCOC(=O)[C@H]1c2ccc3ccccc3c2O[C@@H]2c3ccccc3CCN21 (relative stereo) | 0.43 |

Test system: Staphylococcus aureus
Experiment: as §1, with “Gram-positive methicillin and oxacillin-resistant Staphylococcus aureus ATCC 43300” for “Gram-negative Escherichia coli K-12 AG100 expressing AcrAB-TolC efflux pump”
Type: functional

| Structure (SMILES) | Activity |
| --- | --- |
| CCOC(=O)[C@H]1c2c(ccc3ccccc23)O[C@@H]2c3[nH]c4ccccc4c3CCN21 (relative stereo) | 76072 |
| CCOC(=O)[C@H]1c2ccc3ccccc3c2O[C@@H]2c3[nH]c4ccccc4c3CCN21 (relative stereo) | 84683 |
| CCOC(=O)[C@H]1c2ccc3ccccc3c2O[C@@H]2c3ccsc3CCN21 (relative stereo) | 101450.33 |
| CCOC(=O)[C@H]1c2ccc3ccccc3c2O[C@@H]2c3ccccc3CCN21 (relative stereo) | 111300.67 |

Test system: Staphylococcus aureus
Experiment: (§2) Antibacterial activity against Gram-positive methicillin and oxacillin-resistant Staphylococcus aureus ATCC 43300 assessed as inhibition of efflux pump by measuring intracellular accumulation of ethidium bromide at 100 uM and measured every minute for 1 hr by fluorescence based microtiter plate reader analysis
Type: functional

| Structure (SMILES) | Activity |
| --- | --- |
| CCOC(=O)[C@H]1c2c(ccc3ccccc23)O[C@@H]2c3[nH]c4ccccc4c3CCN21 (relative stereo) | 78009 |
| CCOC(=O)[C@H]1c2ccc3ccccc3c2O[C@@H]2c3[nH]c4ccccc4c3CCN21 (relative stereo) | 90479.33 |
| CCOC(=O)[C@H]1c2ccc3ccccc3c2O[C@@H]2c3ccsc3CCN21 (relative stereo) | 103410 |
| CCOC(=O)[C@H]1c2ccc3ccccc3c2O[C@@H]2c3ccccc3CCN21 (relative stereo) | 114226 |

Test system: Staphylococcus aureus
Experiment: as §2, with “methicillin-susceptible” for “methicillin and oxacillin-resistant”, “25923” for “43300”, “3.125” for “100”
Type: functional

| Structure (SMILES) | Activity |
| --- | --- |
| CCOC(=O)[C@H]1c2ccc3ccccc3c2O[C@@H]2c3[nH]c4ccccc4c3CCN21 (relative stereo) | 34824.33 |

Test system: Staphylococcus aureus
Experiment: Inhibition of efflux pump in Gram-positive methicillin-susceptible Staphylococcus aureus ATCC 25923 assessed as relative fluorescence index using ethidium bromide as substrate at 3.125 uM and measured after 1 hr by fluorescence based microtiter plate reader analysis
Type: functional

| Structure (SMILES) | Activity |
| --- | --- |
| CCOC(=O)[C@H]1c2ccc3ccccc3c2O[C@@H]2c3[nH]c4ccccc4c3CCN21 (relative stereo) | 0.26 |

Test system: Staphylococcus aureus
Experiment: Inhibition of efflux pump in Gram-positive methicillin-susceptible Staphylococcus aureus ATCC 25923 assessed as relative fluorescence index using ethidium bromide as substrate at 50 uM and measured after 1 hr by fluorescence based microtiter plate reader analysis
Type: functional

| Structure (SMILES) | Activity |
| --- | --- |
| CCOC(=O)[C@H]1c2c(ccc3ccccc23)O[C@@H]2c3[nH]c4ccccc4c3CCN21 (relative stereo) | 0.01 |
| CCOC(=O)[C@H]1c2ccc3ccccc3c2O[C@@H]2c3ccsc3CCN21 (relative stereo) | 0.33 |
| CCOC(=O)[C@H]1c2ccc3ccccc3c2O[C@@H]2c3ccccc3CCN21 (relative stereo) | 0.61 |

Test system: Staphylococcus aureus
Experiment: Antibacterial activity against Gram-positive methicillin-susceptible Staphylococcus aureus ATCC 25923 assessed as inhibition of efflux pump by measuring intracellular accumulation of ethidium bromide at 50 uM and measured every minute for 1 hr by fluorescence based microtiter plate reader analysis
Type: functional

| Structure (SMILES) | Activity |
| --- | --- |
| CCOC(=O)[C@H]1c2c(ccc3ccccc23)O[C@@H]2c3[nH]c4ccccc4c3CCN21 (relative stereo) | 27892.33 |
| CCOC(=O)[C@H]1c2ccc3ccccc3c2O[C@@H]2c3ccsc3CCN21 (relative stereo) | 36826.67 |
| CCOC(=O)[C@H]1c2ccc3ccccc3c2O[C@@H]2c3ccccc3CCN21 (relative stereo) | 44414.33 |

Test system: Staphylococcus aureus
Experiment: Inhibition of efflux pump in Gram-positive methicillin-susceptible Staphylococcus aureus ATCC 25923 assessed as relative fluorescence index using ethidium bromide as substrate at 100 uM and measured after 1 hr by fluorescence based microtiter plate reader analysis
Type: functional

| Structure (SMILES) | Activity |
| --- | --- |
| CCOC(=O)[C@H]1c2c(ccc3ccccc23)O[C@@H]2c3[nH]c4ccccc4c3CCN21 (relative stereo) | 0.05 |
| CCOC(=O)[C@H]1c2ccc3ccccc3c2O[C@@H]2c3ccsc3CCN21 (relative stereo) | 1.82 |
| CCOC(=O)[C@H]1c2ccc3ccccc3c2O[C@@H]2c3ccccc3CCN21 (relative stereo) | 0.55 |

Test system: Escherichia coli
Experiment: Inhibition of efflux pump in Gram-negative Escherichia coli K-12 AG100 expressing AcrAB-TolC efflux pump assessed as relative fluorescence index using ethidium bromide as substrate at 100 uM and measured after 1 hr by fluorescence based microtiter plate reader analysis
Type: functional

| Structure (SMILES) | Activity |
| --- | --- |
| CCOC(=O)[C@H]1c2c(ccc3ccccc23)O[C@@H]2c3[nH]c4ccccc4c3CCN21 (relative stereo) | 0.06 |
| CCOC(=O)[C@H]1c2ccc3ccccc3c2O[C@@H]2c3[nH]c4ccccc4c3CCN21 (relative stereo) | -0.06 |
| CCOC(=O)[C@H]1c2ccc3ccccc3c2O[C@@H]2c3ccsc3CCN21 (relative stereo) | 0.05 |
| CCOC(=O)[C@H]1c2ccc3ccccc3c2O[C@@H]2c3ccccc3CCN21 (relative stereo) | 0.08 |

Test system: Escherichia coli
Experiment: as §1, with “100” for “50”
Type: functional

| Structure (SMILES) | Activity |
| --- | --- |
| CCOC(=O)[C@H]1c2c(ccc3ccccc23)O[C@@H]2c3[nH]c4ccccc4c3CCN21 (relative stereo) | 36337.67 |
| CCOC(=O)[C@H]1c2ccc3ccccc3c2O[C@@H]2c3[nH]c4ccccc4c3CCN21 (relative stereo) | 32220.33 |
| CCOC(=O)[C@H]1c2ccc3ccccc3c2O[C@@H]2c3ccsc3CCN21 (relative stereo) | 35945.67 |
| CCOC(=O)[C@H]1c2ccc3ccccc3c2O[C@@H]2c3ccccc3CCN21 (relative stereo) | 36999.33 |

Test system: Staphylococcus aureus
Experiment: Inhibition of efflux pump in Gram-positive methicillin and oxacillin-resistant Staphylococcus aureus ATCC 43300 assessed as relative fluorescence index using ethidium bromide as substrate at 100 uM and measured after 1 hr by fluorescence based microtiter plate reader analysis
Type: functional

| Structure (SMILES) | Activity |
| --- | --- |
| CCOC(=O)[C@H]1c2c(ccc3ccccc23)O[C@@H]2c3[nH]c4ccccc4c3CCN21 (relative stereo) | 0 |
| CCOC(=O)[C@H]1c2ccc3ccccc3c2O[C@@H]2c3[nH]c4ccccc4c3CCN21 (relative stereo) | 0.16 |
| CCOC(=O)[C@H]1c2ccc3ccccc3c2O[C@@H]2c3ccsc3CCN21 (relative stereo) | 0.33 |
| CCOC(=O)[C@H]1c2ccc3ccccc3c2O[C@@H]2c3ccccc3CCN21 (relative stereo) | 0.46 |

Test system: Staphylococcus aureus
Experiment: Antibacterial activity against Gram-positive methicillin-susceptible Staphylococcus aureus ATCC 25923 assessed as inhibition of bacterial growth by CLSI protocol based assay
Type: functional

| Structure (SMILES) | MIC |
| --- | --- |
| CCOC(=O)[C@H]1c2c(ccc3ccccc23)O[C@@H]2c3[nH]c4ccccc4c3CCN21 (relative stereo) | > 100 µM |
| CCOC(=O)[C@H]1c2ccc3ccccc3c2O[C@@H]2c3[nH]c4ccccc4c3CCN21 (relative stereo) | 6.25 µM (≈ 2.49 µg/mL) |
| CCOC(=O)[C@H]1c2ccc3ccccc3c2O[C@@H]2c3ccsc3CCN21 (relative stereo) | > 100 µM |
| CCOC(=O)[C@H]1c2ccc3ccccc3c2O[C@@H]2c3ccccc3CCN21 (relative stereo) | > 100 µM |

Test system: Staphylococcus aureus
Experiment: Antibacterial activity against Gram-positive methicillin-susceptible Staphylococcus aureus ATCC 25923 assessed as inhibition of efflux pump by measuring intracellular accumulation of ethidium bromide at 100 uM and measured every minute for 1 hr by fluorescence based microtiter plate reader analysis
Type: functional

| Structure (SMILES) | Activity |
| --- | --- |
| CCOC(=O)[C@H]1c2c(ccc3ccccc23)O[C@@H]2c3[nH]c4ccccc4c3CCN21 (relative stereo) | 29131.67 |
| CCOC(=O)[C@H]1c2ccc3ccccc3c2O[C@@H]2c3ccsc3CCN21 (relative stereo) | 77859.67 |
| CCOC(=O)[C@H]1c2ccc3ccccc3c2O[C@@H]2c3ccccc3CCN21 (relative stereo) | 42864 |
